Measurements reported in ChEMBL document CHEMBL1221220, “Transport and signaling via the amino acid binding site of the yeast Gap1 amino acid transceptor” (Nat Chem Biol, 2009).
Where a chain is given by its changes, count along the chain named. Active and inactive are the calls of the source. The rule behind the calls is not given here.

Assays:
[1] = tested on: T1, General amino-acid permease GAP1 (Saccharomyces cerevisiae), P19145 [T400C]; assay: Induction of yeast Gap1 T400C mutant-mediated trehalose activation at 10 mM
T1 sequence (whole entry): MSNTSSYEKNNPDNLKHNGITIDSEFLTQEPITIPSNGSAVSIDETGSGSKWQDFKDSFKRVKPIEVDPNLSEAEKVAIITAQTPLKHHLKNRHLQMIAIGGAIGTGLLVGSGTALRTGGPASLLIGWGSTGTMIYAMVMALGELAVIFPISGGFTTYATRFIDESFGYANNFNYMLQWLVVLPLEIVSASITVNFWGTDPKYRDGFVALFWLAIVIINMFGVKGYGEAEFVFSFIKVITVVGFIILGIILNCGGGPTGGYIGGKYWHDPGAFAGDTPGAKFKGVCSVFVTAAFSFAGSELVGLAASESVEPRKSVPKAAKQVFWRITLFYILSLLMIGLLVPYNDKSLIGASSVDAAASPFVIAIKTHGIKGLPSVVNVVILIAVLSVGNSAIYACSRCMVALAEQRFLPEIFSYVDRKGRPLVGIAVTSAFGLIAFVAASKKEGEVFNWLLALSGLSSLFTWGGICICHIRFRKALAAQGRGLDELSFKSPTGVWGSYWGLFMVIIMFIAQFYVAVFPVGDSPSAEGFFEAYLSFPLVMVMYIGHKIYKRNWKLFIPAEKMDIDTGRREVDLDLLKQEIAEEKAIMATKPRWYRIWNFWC

[2] = tested on: T2, General amino-acid permease GAP1 (Saccharomyces cerevisiae), P19145 [A405C]; assay: Induction of yeast GAP1 A405C mutant-mediated amino acid uptake at 2 mM in presence of 10 mM MTSEA treated before compound addition
T2 sequence (whole entry): T1 sequence (whole entry) with C400T, A405C

[3] = tested on: T3, General amino-acid permease GAP1 (Saccharomyces cerevisiae), P19145 [A393C]; assay: Induction of yeast Gap1 A393C mutant-mediated amino acid uptake at 2 mM in presence of 10 mM MTSEA treated before compound addition
T3 sequence (whole entry): T1 sequence (whole entry) with A393C, C400T

[4] = tested on: T4, General amino-acid permease GAP1 (Saccharomyces cerevisiae), P19145 [G390C]; assay: Activation of yeast Gap1 G390C mutant-mediated amino acid uptake at 10 mM
T4 sequence (whole entry): T1 sequence (whole entry) with G390C, C400T

In the case of NC(=O)NCCC[C@H](N)C(=O)O, the Activity [1] is reported as “inactive”, the Activity [2] is reported as “Active” and the Activity [3] is reported as “Active”. The Activity [4] was “inactive”.
